Laboratory results from patent US10428081B2, “EGFR inhibitor, preparation method and use thereof” (Shanghai Hansoh Biomedical Co., Ltd., priority 2014, dated 2019).

Columns and labels:
PK analysis in rats = type: in vivo, Sprague Dawley (SD) rats; conditions: SD rats, single intragastric administration, 5 mg/10 ml/kg; for AUC(0-t): read-out: AUC0-8; for MRT inf: read-out: MRT0-∞
Protocol: 1.0 ml of intravenous blood was collected and placed in a K2EDTA test tube. The blood was centrifuged at RT 6000 rpm for 5 minutes to isolate the plasma, which was stored at −80° C.
Liquid Chromatography: • Condition of Liquid chromatography Shimadzu LC-20AD pump • Chromatographic column: phenomenex Gemiu 5 μm C18 50×4.6 mm • Mobile phase: Solution A is 0.1% formic acid aqueous solution, and Solution B is acetonitrile • Flow rate: 0.8 mL/min • Elution time: 0-3.5 minutes, the eluent used was as follows:
Condition of mass spectrometer: positive ion electrospray ionization (ESI) mode. • Analysis results of liquid chromatography and mass spectrometry:

A431 cells = assay: Inhibition of A431 cell proliferation (CellTiter-Glo); type: cell-based; conditions: Homo sapiens, A-431, 72 h, read-out: EGFR IC50 (nM) A431
Procedure, shortened: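 Viability read as CellTiter-Glo luminescence; IC50 by curve fitting of inhibition rates.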

wild-type EGFR enzyme = wild-type EGFR enzyme (Homo sapiens, UniProt P00533); assay: Enzymologic experiment of wild-type (WT) EGFR (TR-FRET); type: biochemical; conditions: ATP 0.1 to 5 uM
Chain of wild-type EGFR enzyme (P00533 25-1210): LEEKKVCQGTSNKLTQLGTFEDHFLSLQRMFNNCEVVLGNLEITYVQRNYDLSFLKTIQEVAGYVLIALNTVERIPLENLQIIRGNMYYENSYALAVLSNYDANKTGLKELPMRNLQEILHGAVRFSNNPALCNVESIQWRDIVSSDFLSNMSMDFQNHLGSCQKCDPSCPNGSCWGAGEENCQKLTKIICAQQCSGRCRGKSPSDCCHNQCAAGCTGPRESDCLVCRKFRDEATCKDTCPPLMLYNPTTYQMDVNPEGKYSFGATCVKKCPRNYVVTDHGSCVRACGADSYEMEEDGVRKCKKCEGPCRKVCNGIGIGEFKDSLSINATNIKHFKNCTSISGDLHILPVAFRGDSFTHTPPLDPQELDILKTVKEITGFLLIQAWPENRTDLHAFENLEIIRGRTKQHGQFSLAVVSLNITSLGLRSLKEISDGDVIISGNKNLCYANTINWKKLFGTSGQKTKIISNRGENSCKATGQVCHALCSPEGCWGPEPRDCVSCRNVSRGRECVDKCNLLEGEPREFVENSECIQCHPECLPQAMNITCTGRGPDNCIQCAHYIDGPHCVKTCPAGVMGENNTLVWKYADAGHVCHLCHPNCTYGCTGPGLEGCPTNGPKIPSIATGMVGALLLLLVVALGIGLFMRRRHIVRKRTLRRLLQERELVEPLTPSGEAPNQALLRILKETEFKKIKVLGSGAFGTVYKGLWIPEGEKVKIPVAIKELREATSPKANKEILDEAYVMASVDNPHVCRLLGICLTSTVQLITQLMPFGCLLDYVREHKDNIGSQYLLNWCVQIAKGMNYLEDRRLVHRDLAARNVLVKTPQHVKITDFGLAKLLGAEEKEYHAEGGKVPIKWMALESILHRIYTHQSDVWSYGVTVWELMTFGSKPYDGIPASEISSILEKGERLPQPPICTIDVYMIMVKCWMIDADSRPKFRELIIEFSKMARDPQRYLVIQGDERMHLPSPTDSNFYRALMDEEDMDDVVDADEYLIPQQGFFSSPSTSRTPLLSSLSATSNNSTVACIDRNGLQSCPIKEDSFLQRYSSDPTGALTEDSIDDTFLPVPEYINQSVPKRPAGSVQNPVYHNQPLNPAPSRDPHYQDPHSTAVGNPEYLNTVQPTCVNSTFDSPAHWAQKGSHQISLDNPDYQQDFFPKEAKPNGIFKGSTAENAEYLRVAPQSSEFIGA
Procedure, shortened: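 Wild-type EGFR (0.1 to 1 nM final) preincubated with serially diluted compound for 10 minutes at room temperature; reaction stopped with EDTA, then labelled antibody added for 1 hour at room temperature. TR-FRET signal converted to inhibition rates; IC50 from curve fitting across concentrations.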

[1] = target: exon 20 T790M mutant-type EGFR enzyme (Homo sapiens, UniProt P00533, T790M); assay: Enzymologic experiment of T790M mutant-type EGFR (TR-FRET); type: biochemical; conditions: for IC50: T790M EGFR enzyme, TR-FRET, ATP 1 to 10 uM; for Selectivity of wild-type/mutant-type: ratio WT IC50 / T790M IC50, enzyme
Chain of exon 20 T790M mutant-type EGFR enzyme (P00533 25-1210 T790M): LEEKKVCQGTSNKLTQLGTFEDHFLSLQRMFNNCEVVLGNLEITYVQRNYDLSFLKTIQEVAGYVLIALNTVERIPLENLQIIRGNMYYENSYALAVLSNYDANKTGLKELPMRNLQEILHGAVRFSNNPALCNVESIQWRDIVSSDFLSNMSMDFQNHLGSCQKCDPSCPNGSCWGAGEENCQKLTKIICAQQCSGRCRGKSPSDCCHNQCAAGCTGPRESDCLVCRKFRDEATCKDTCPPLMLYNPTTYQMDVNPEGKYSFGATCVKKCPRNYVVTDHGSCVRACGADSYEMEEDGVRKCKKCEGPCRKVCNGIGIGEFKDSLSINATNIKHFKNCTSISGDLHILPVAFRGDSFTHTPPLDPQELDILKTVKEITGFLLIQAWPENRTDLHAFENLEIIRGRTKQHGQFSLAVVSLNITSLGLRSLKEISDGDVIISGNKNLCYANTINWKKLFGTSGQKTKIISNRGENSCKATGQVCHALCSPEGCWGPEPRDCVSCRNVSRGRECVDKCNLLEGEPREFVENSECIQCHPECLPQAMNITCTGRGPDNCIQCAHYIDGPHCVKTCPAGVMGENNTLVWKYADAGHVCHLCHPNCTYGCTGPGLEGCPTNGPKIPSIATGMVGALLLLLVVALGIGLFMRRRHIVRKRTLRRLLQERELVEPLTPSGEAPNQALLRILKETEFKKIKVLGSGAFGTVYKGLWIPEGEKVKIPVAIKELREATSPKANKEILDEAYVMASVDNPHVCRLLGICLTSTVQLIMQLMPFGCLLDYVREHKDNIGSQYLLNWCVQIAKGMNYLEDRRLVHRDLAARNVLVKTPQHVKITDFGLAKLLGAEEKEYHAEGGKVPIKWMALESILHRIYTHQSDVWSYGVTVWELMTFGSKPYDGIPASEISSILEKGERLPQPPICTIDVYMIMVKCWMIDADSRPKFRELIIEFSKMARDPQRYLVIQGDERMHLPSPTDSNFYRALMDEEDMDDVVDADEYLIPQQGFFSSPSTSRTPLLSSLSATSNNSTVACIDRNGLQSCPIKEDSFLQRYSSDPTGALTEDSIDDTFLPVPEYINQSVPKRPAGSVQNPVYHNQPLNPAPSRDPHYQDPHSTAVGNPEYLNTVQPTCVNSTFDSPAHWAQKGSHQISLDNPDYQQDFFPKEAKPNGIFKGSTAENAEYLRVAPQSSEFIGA
Procedure, shortened: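 Compound dilutions preincubated 10 min at room temperature; reaction ended with EDTA, then labeled antibody added for 1 h at room temperature. Inhibition rates derived from TR-FRET fluorescence signal, and IC50 obtained by curve fitting across concentrations.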

in vivo = conditions: beagle, dog, po, 2 mg/kg
Protocol: 1. 1.0 ml of intravenous blood was collected and placed in a Heparin test tube. The blood was centrifuged at RT 6000 rpm for 5 minutes to isolate the plasma, which was stored at −80° C.
2. 160 μL of acetonitrile were added to 40 μL of plasma sample for precipitation, and then the mixture was centrifuged at 3500 rpm for 5 minutes.
3. 100 μL of treated solution was taken, and the concentration of the test compound was analyzed by LC/MS/MS. The LC/MS/MS analytical instrument was AB Sciex API 4000.
Liquid Chromatography: • Condition of Liquid chromatography: Shimadzu LC-20AD pump • Chromatographic column: phenomenex Gemiu 5 μm C18 50×4.6 mm • Mobile phase: Solution A is 0.1% formic acid aqueous solution, and Solution B is acetonitrile • Flow rate: 0.8 mL/min • Elution time: 0-3.5 minutes, the eluent used was as follows: […]

NCI-H1975 cells = assay: Inhibition of NCI-H1975 cell proliferation (CellTiter-Glo); type: cell-based; conditions: for IC50: Homo sapiens, NCI-H1975, 72 h, NCI-H1975 cell proliferation, 72 hours, CellTiter-Glo, read-out: EGFR IC50 (nM) H1975; for Selectivity of wild-type/mutant-type: ratio A431 IC50 / H1975 IC50, cells
[2] = Sprague-Dawley, rat, po, 5 mg/kg, plasma

Compound: C=CC(=O)Nc1cc(Nc2nccc(-c3cn(C4CC4)c4ccccc34)n2)c(OC)cc1N(C)CCN(C)C [Example 26, N-(5-((4-(1-cyclopropyl-1H-indol-3-yl)pyrimidin-2-yl)amino)-2-((2-(dimethylamino)ethyl)(methyl)amino)-4-methoxyphenyl)acrylamide]
- metabolites in the plasma of rat (PK analysis in rats): only one metabolite
- AUC(0-inf) (PK analysis in rats; [2]): 268 ng·h/mL
- Cmax (PK analysis in rats; [2]): 58.4 ng/mL
- Tmax (PK analysis in rats; [2]): 0.5 h
- half-life (PK analysis in rats; [2]): 2.3 h
- AUC(0-t) (PK analysis in rats; [2]): 235 ng·h/mL
- MRT inf (PK analysis in rats; [2]): 3.9 h
- IC50 (A431 cells): 509 nM
- IC50 (wild-type EGFR enzyme): 1.89 nM
- IC50 [1]: 0.49 nM
- Selectivity of wild-type/mutant-type [1]: 3.9
- AUC(0-inf) (in vivo): 5150 ng·h/mL
- AUC(0-t) (in vivo): 4580 ng·h/mL
- Cmax (in vivo): 528 ng/mL
- MRT inf (in vivo): 9.2 h
- Tmax (in vivo): 1 h
- half-life (in vivo): 7 h
- IC50 (NCI-H1975 cells): 2.44 nM
- Selectivity of wild-type/mutant-type (NCI-H1975 cells): 208.7

Compound: C=CC(=O)Nc1cc(Nc2nccc(-c3cn(C4CC4)c4ccccc34)n2)c(OC)cc1N(C)CCNC [Metabolite of Example 26]
- Cmax (PK analysis in rats; [2]): 16.4 ng/mL
- Tmax (PK analysis in rats; [2]): 0.5 h
- AUC(0-t) (PK analysis in rats; [2]): 77.4 ng·h/mL
- AUC(0-t) (in vivo): 2060 ng·h/mL
- Cmax (in vivo): 126 ng/mL
- Tmax (in vivo): 6 h

Compound: C=CC(=O)Nc1cc(Nc2nccc(-c3cn(C)c4ccccc34)n2)c(OC)cc1N(C)CCN(C)C [AZD-9291, reference compound]
- t1/2 (PK analysis in rats; plasma): 3.8 h
- AUC(0-inf) (PK analysis in rats; [2]): 283 ng·h/mL
- Cmax (PK analysis in rats; [2]): 58.3 ng/mL
- Tmax (PK analysis in rats; [2]): 2 h
- AUC(0-t) (PK analysis in rats; [2]): 278 ng·h/mL
- MRT inf (PK analysis in rats; [2]): 3.9 h
- Cmax (in vivo): 81.4 ng/mL
- MRT inf (in vivo): 9 h
- Tmax (in vivo): 1 h
- half-life (in vivo): 5.4 h

Compound: C=CC(=O)Nc1cc(Nc2nccc(-c3cn(C)c4cc(C#N)ccc34)n2)c(OC(F)F)cc1N(C)CCN(C)C [Example 9, N-(5-((4-(6-cyano-1-methyl-1H-indol-3-yl)pyrimidin-2-yl)amino)-4-(difluoromethoxy)-2-((2-(dimethylamino)ethyl)(methyl)amino)phenyl)acrylamide]
- IC50 (A431 cells): 216 nM
- IC50 (wild-type EGFR enzyme): 2.12 nM
- IC50 [1]: 0.39 nM
- Selectivity of wild-type/mutant-type [1]: 5.44
- IC50 (NCI-H1975 cells): 4.58 nM
- Selectivity of wild-type/mutant-type (NCI-H1975 cells): 47.07

Compound: C=CC(=O)Nc1cc(Nc2nccc(-c3cn(C)c4ccccc34)n2)c(OC(F)F)cc1N1CCN(C)CC1 [Example 2, N-(4-(difluoromethoxy)-5-((4-(1-methyl-1H-indol-3-yl)pyrimidin-2-yl)amino)-2-(4-methylpiperazine-1-yl)phenyl)acrylamide]
- IC50 (A431 cells): 224 nM
- IC50 (wild-type EGFR enzyme): 143 nM
- IC50 [1]: 9.26 nM
- Selectivity of wild-type/mutant-type [1]: 15
- IC50 (NCI-H1975 cells): 1.36 nM
- Selectivity of wild-type/mutant-type (NCI-H1975 cells): 164

Compound: C=CC(=O)Nc1cc(Nc2nccc(-n3nc(C4CC4)c4cc(OC)ccc43)n2)c(OC)cc1N(C)CCN(C)C [Example 113, N-(5-((4-(3-cyclopropyl-5-methoxy-1H-indazol-1-yl)pyrimidin-2-yl)amino)-2-((2-(dimethylamino)ethyl)(methyl)amino)-4-methoxyphenyl)acrylamide]
- IC50 (A431 cells): 233 nM
- IC50 (wild-type EGFR enzyme): 1.62 nM
- IC50 [1]: 0.36 nM
- Selectivity of wild-type/mutant-type [1]: 4.50
- IC50 (NCI-H1975 cells): 3.17 nM
- Selectivity of wild-type/mutant-type (NCI-H1975 cells): 73.42

Compound: C=CC(=O)Nc1cc(Nc2nccc(-n3nc(C)c4cc(OC)c(OC)cc43)n2)c(OC)cc1N(C)CCN(C)C [Example 53, N-(5-((4-(5,6-dimethoxy-3-methyl-1H-indazol-1-yl)pyrimidin-2-yl)amino)-2-((2-(dimethylamino)ethyl)(methyl)amino)-4-methoxyphenyl)acrylamide]
- IC50 (A431 cells): 628 nM
- IC50 (wild-type EGFR enzyme): 34.1 nM
- IC50 [1]: 2.53 nM
- Selectivity of wild-type/mutant-type [1]: 13.50
- IC50 (NCI-H1975 cells): 20 nM
- Selectivity of wild-type/mutant-type (NCI-H1975 cells): 31.38
